Read-outs that look alike come from different tables or passages of the source.
Columns and labels:
whole (N) 5HT2C receptor = whole (N) 5HT2C receptor (Mus musculus, UniProt Q02152); experiment: biochemical; format: binding; conditions: for order of efficacy of displacement / competition: displacement of [^125 I]DOI
[1] = target: T1, truncated (T) 5HT2C receptor (Mus musculus, UniProt Q02152, S167T); experiment: biochemical; format: binding
T1 sequence (Q02152 with tags, fused parts or gaps S167T): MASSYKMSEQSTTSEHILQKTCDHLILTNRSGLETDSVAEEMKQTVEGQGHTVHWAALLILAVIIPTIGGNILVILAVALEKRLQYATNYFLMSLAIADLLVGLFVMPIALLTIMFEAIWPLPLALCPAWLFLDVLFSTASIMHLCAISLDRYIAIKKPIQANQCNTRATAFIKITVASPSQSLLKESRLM

5-HT2 = 5-HT2 (Homo sapiens, UniProt P28223); experiment: binding to 5-HT2 (Table 1 comparison)
5-HT1C = target: T2, 5-HT1C (Homo sapiens, UniProt P28335); experiment: biochemical; format: binding
T2 sequence (P28335 33-458): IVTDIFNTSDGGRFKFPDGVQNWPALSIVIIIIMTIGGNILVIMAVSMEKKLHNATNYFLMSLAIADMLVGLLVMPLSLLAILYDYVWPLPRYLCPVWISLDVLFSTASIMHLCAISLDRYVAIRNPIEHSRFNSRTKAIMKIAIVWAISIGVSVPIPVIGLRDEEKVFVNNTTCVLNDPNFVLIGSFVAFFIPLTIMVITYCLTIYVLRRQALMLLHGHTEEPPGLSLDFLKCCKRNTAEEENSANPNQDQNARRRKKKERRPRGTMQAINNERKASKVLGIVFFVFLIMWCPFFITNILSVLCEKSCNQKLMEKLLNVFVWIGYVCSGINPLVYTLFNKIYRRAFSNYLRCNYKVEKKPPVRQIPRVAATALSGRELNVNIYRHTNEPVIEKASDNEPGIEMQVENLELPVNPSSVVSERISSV

5HT2C receptor = target: T3, 5HT2C receptor (Mus musculus, UniProt Q02152); experiment: saturation binding of [^125 I]DOI to membranes of Cos-7 cells expressing the 5HT2C receptor
T3 construct: expressed in transfected cells; host or cells: Cos-7
Procedure: FIG. 1 Scatchard curve of the results of experiments for the binding, at saturation, of [^125 I]DOI to the membranes of Cos-7 cells expressing the 5HT2C receptor.
The cDNA fragment isolated in Example 1 was inserted into an eukaryotic expression vector, which was used to transfect Cos-7 cells. The membranes of the transfected cells obtained were then prepared and tested for their capacity to bind certain labelled serotoninergic ligands.
The cDNA encoding the 5HT2C receptor was isolated in the form of a 1372 pb XbaI-EcoRI fragment and then inserted at the corresponding sites of the vector p513. The vector p513 is derived from the vector pSG5 [Green et al., Nucl. Acids Res. 16 (1988) 369] by addition of a multiple cloning site. The recombinant vector thus obtained, designated p513NP75, was then used (10 μg per 10 cm dish) to transfect the Cos-7 cells in the presence of calcium phosphate.
48 Hours after transfection, the recombinant cells are harvested and the membranes are prepared according to the technique described by Amlaiky and Caron [J. Biol. Chem. 260 (1985) 1983].
Saturation binding and competition experiments were then carried out on these membranes in the presence of [^125 I]DOI (2200 Ci/mmol; New England Nuclear) and various test compounds.
(§1) The [^125 I]DOI (dimethoxyphenyl isopropylamine) was first used alone, in order to detect the expression of the gene encoding the receptors of the invention in the membranes of the recombinant cells. For this purpose, 100 μl of membrane suspension ([…]) of proteins) were incubated for 30 minutes at 30° C. in the presence of the radioactive ligand (50 μl) and 50 μl of 50 mM Tris-HCl buffer (pH 7.4), 150 mM NaCl, 10 mm MgCl2, final volume: 200 μl. The reaction is then stopped by addition of an isoosmotic ice-cold solution, then by filtration on Whatman GF/B filters, followed by 4 rinses in 5 ml of the above ice-cold buffer. The filters are then dried and the radioactivity is measured by counting (γ counter). Non-specific binding, determined in the presence of 10 μM of cold DOI, represented about 30% of the total binding.

[2] = system: membranes of the control cells (transfected with plasmid pSG5); experiment: [^125 I]DOI binding to membranes of control cells (transfected with plasmid pSG5)
Procedure: as §1
These cells therefore indeed express a functional serotonin receptor.

coronary arteries = conditions: human coronary atherosclerosis; Golino et al.; cited from earlier work
[3] = system: translation of the intracellular signal; experiment: translation of the intracellular signal by the truncated receptor; format: cell-based, mouse; conditions: truncated protein
Text: The physiological role of this form of the receptor remains unknown, but it seems likely that it serves to protect certain sensitive targets, such as the vascular endothelium, from harmful stimulations by locally "diluting" the effect of the ligand, in this case serotonin.

[4] = [^125 I]DOI displacement, COS membranes, truncated receptor, at least three experiments in triplicate, read-out: pKD, binding to the COS T (converted)
[5] = Table 1 comparison column, source of values not stated
[6] = [^125 I]DOI displacement, Cos-7 membranes, whole receptor, at least three experiments in triplicate, read-out: pKD, binding to the COS N cells (converted)

Chain of 5-HT2 (P28223 whole entry, species assumed): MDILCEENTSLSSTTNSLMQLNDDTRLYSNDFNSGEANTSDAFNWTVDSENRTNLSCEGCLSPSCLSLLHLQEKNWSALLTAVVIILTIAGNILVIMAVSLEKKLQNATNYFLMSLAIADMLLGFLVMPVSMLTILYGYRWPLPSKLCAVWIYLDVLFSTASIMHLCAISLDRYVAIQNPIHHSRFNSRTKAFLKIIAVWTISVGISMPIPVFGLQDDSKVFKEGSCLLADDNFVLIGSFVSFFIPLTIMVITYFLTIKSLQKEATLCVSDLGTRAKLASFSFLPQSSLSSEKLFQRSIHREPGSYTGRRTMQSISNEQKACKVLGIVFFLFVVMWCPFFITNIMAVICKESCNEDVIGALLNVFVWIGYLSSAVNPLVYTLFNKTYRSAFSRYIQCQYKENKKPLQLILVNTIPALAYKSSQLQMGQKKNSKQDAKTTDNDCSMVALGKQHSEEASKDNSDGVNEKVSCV
T3 sequence (Q02152 whole entry S167T/A227V/S449C): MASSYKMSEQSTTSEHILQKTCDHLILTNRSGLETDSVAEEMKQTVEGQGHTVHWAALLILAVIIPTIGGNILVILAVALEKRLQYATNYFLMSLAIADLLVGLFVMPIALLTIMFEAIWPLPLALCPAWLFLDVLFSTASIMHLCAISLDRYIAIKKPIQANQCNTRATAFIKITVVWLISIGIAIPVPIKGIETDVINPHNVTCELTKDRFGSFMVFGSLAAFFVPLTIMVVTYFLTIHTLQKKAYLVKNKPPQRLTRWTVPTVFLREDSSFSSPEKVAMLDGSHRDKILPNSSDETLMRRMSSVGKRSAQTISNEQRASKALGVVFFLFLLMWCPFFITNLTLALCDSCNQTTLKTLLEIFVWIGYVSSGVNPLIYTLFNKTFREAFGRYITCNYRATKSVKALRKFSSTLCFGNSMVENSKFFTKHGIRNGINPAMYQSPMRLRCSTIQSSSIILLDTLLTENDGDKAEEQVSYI
Chain of whole (N) 5HT2C receptor (Q02152 whole entry S167T/A227V/S449C, the tested form may be a part): as the sequence (Q02152 whole entry S167T/A227V/S449C) above

Molecule: Cn1cc(CCN)c2cc(O)ccc21 [1-ME-5-HT]
- Kd (whole (N) 5HT2C receptor): 2510 nM
- Kd [1, 4]: 60300 nM
- Kd (5-HT2; [5]): 501 nM
- Kd (5-HT1C): 3.98 nM

Molecule: Cc1[nH]c2ccc(O)cc2c1CCN [2-Me-5-HT]
- Kd (whole (N) 5HT2C receptor): 6610 nM
- Kd [1, 4]: > 100000 nM
- Kd (5-HT2; [5]): 6310 nM
- Kd (5-HT1C): 1580 nM

Molecule: CCCN(CCC)C1CCc2cccc(O)c2C1 (stereo not shown) [8-OH-DPAT]
- Kd (whole (N) 5HT2C receptor): 6460 nM
- order of efficacy of displacement (whole (N) 5HT2C receptor; whole receptor): ritanserin>N-acetyl 5-HT>methysergide>setoperone=cyproheptadine>spiperone>ketanserin>tryptamine>5-HT >8-OH-DPAT
- Kd [1, 4]: > 100000 nM
- Kd (5-HT2): 10000 nM

Molecule: CN(C)CCCN1c2ccccc2Sc2ccc(Cl)cc21 [Chlorpromazine]
- Kd (whole (N) 5HT2C receptor; [6]): > 100000 nM
- Kd [1, 4]: > 100000 nM

Molecule: CN1CCC(=C2c3ccccc3C=Cc3ccccc32)CC1 [Cyproheptadine]
- Kd (5-HT1C; [5]): 12.6 nM

Molecule: COc1cc(CC(C)N)c(OC)cc1I (stereo not shown) [DOI, dimethoxyphenyl isopropylamine]
- specific binding to the membranes of the transfected cells (5HT2C receptor; [^125 I]DOI): binds specifically to the membranes of the transfected cells
- Kd (5HT2C receptor; [^125 I]DOI saturation binding, 30 minutes at 30° C., pH 7.4, read-out: apparent KD): 25.8 ± 0.54 nM
- affinity for the transfected cells (5HT2C receptor; [^125 I]DOI saturation binding, FIG. 1): high and the binding is saturable
- non-specific binding (of the total binding) (5HT2C receptor; in the presence of 10 μM of cold DOI): about 30%
- binding to membranes of the control cells [2]: not to the membranes of the control cells

Molecule: NCCc1c[nH]cn1 [Histamine]
- Kd (whole (N) 5HT2C receptor; [6]): > 100000 nM
- Kd [1, 4]: > 100000 nM
- Kd (5-HT2): > 100000 nM
- Kd (5-HT1C; [5]): > 100000 nM

Molecule: CN1C2CCC1CC(OC(=O)c1c[nH]c3ccccc13)C2 (stereo not shown) [ICS 205-930]
- competition (whole (N) 5HT2C receptor; whole receptor): absence of competition
- Kd [1, 4]: > 100000 nM
- Kd (5-HT1C): 25100 nM

Molecule: O=C(c1ccc(F)cc1)C1CCN(CCn2c(=O)[nH]c3ccccc3c2=O)CC1 [Ketanserin]
- Kd (whole (N) 5HT2C receptor; [6]): 204 nM
- order of efficacy of displacement (whole (N) 5HT2C receptor; whole receptor): ritanserin>N-acetyl 5-HT>methysergide>setoperone=cyproheptadine>spiperone>ketanserin>tryptamine>5-HT >8-OH-DPAT
- Kd [1]: > 100000 nM
- increased sensitivity to serotonin of the contraction of the coronary arteries (coronary arteries): can be reduced by ketanserin

Molecule: CN1[C@@H]2CC[C@H]1C[C@@H](OC(=O)c1cc(Cl)cc(Cl)c1)C2 [MDL 72222]
- Kd (whole (N) 5HT2C receptor; [6]): 24000 nM
- competition (whole (N) 5HT2C receptor; whole receptor): absence of competition
- Kd [1, 4]: > 100000 nM
- Kd (5-HT2): 200 nM
- Kd (5-HT1C; [5]): > 10000 nM

Molecule: CC[C@@H](CO)NC(=O)[C@@H]1C=C2c3cccc4c3c(cn4C)C[C@H]2N(C)C1 [Methysergide]
- Kd (whole (N) 5HT2C receptor): 12.6 nM
- order of efficacy of displacement (whole (N) 5HT2C receptor; whole receptor): ritanserin>N-acetyl 5-HT>methysergide>setoperone=cyproheptadine>spiperone>ketanserin>tryptamine>5-HT >8-OH-DPAT
- Kd (5-HT1C): 2.51 nM

Molecule: CC(=O)NCCc1c[nH]c2ccc(O)cc12 [N-Acetyl-5-HT]
- Kd (whole (N) 5HT2C receptor): 7.08 nM
- order of efficacy of displacement (whole (N) 5HT2C receptor; whole receptor): ritanserin>N-acetyl 5-HT>methysergide>setoperone=cyproheptadine>spiperone>ketanserin>tryptamine>5-HT >8-OH-DPAT
- Kd [1, 4]: 200 nM
- Kd (5-HT2): 3160 nM
- Kd (5-HT1C): 794 nM

Molecule: COc1ccc2[nH]cc(CCN(C)C)c2c1 [NNdiMe-5-MeOT]
- Kd (whole (N) 5HT2C receptor): 7410 nM
- Kd [1, 4]: 45700 nM

Molecule: c1ccc2nc(N3CCNCC3)ccc2c1 [Quipazine]
- Kd (whole (N) 5HT2C receptor; [6]): 6610 nM
- competition (whole (N) 5HT2C receptor; whole receptor): absence of competition
- Kd [1, 4]: 14100 nM
- Kd (5-HT2): 631 nM
- Kd (5-HT1C): 200 nM

Molecule: Cc1nc2sccn2c(=O)c1CCN1CCC(=C(c2ccc(F)cc2)c2ccc(F)cc2)CC1 [Ritanserin]
- order of efficacy of displacement (whole (N) 5HT2C receptor; whole receptor): ritanserin>N-acetyl 5-HT>methysergide>setoperone=cyproheptadine>spiperone>ketanserin>tryptamine>5-HT >8-OH-DPAT
- Kd (5-HT1C): 2.51 nM

Molecule: Cc1nc2n(c(=O)c1CCN1CCC(C(=O)c3ccc(F)cc3)CC1)CCS2 [Setoperone]
- Kd (whole (N) 5HT2C receptor; [6]): 24.5 nM
- order of efficacy of displacement (whole (N) 5HT2C receptor; whole receptor): ritanserin>N-acetyl 5-HT>methysergide>setoperone=cyproheptadine>spiperone>ketanserin>tryptamine>5-HT >8-OH-DPAT
- Kd [1, 4]: > 100000 nM
- Kd (5-HT2): 2.51 nM
- Kd (5-HT1C; [5]): 50.1 nM

Molecule: O=C(CCCN1CCC2(CC1)C(=O)NCN2c1ccccc1)c1ccc(F)cc1 [Spiperone]
- Kd (whole (N) 5HT2C receptor; [6]): 50.1 nM
- order of efficacy of displacement (whole (N) 5HT2C receptor; whole receptor): ritanserin>N-acetyl 5-HT>methysergide>setoperone=cyproheptadine>spiperone>ketanserin>tryptamine>5-HT >8-OH-DPAT
- Kd [1, 4]: > 100000 nM
- Kd (5-HT1C; [5]): 1260 nM

Molecule: NCCc1c[nH]c2ccccc12 [Tryptamine]
- Kd (whole (N) 5HT2C receptor): 200 nM
- order of efficacy of displacement (whole (N) 5HT2C receptor; whole receptor): ritanserin>N-acetyl 5-HT>methysergide>setoperone=cyproheptadine>spiperone>ketanserin>tryptamine>5-HT >8-OH-DPAT
- Kd [1, 4]: 14500 nM
- Kd (5-HT1C): 63.1 nM

B1: truncated protein: receptor having only the first three transmembrane domains, residues 1 to 177 SEQ ID No. 2 plus 14 C-terminal amino acids (protein)
chain: MASSYKMSEQSTTSEHILQKTCDHLILTNRSGLETDSVAEEMKQTVEGQGHTVHWAALLILAVIIPTIGGNILVILAVALEKRLQYATNYFLMSLAIADLLVGLFVMPIALLTIMFEAIWPLPLALCPAWLFLDVLFSTASIMHLCAISLDRYIAIKKPIQANQCNTRATAFIKITV
modifications: plus 14 C-terminal amino acids
- translation of the intracellular signal [3]: completely abolished

— US5780245A, “Polypeptides having a serotonin receptor activity, nucleic acids coding for these polypeptides and uses” (priority 1992, dated 1998)
